The values below are quoted from earlier work in patent US20070021352A1, “PREVENTION AND TREATMENT OF HEARING DISORDERS” (Cypress Bioscience, Inc., priority 2005, published 2007).

One data set deals with cochlea. Particulars: guinea pig model; local administration.
The conditions of data set [1]: elderly patients; preliminary results.
The conditions of data set [2]: normal, healthy volunteers; daily ingestion of 6.7 mmol; rifle noise six days per week for eight weeks; vs placebo (sodium aspartate).
For data set [3] the following is noted: humans; daily ingestion of 122 mg for 10 days.

As to `CCN(CC)CCn1c(=O)c(Cc2ccc(OC)cc2)nc2ccccc21` [caroverine, 1-[2-(diethylamino)ethyl]-3-[(4-methoxyphenyl)methyl]-2-(1H)-quinoxalinone], in the data set with cochlea, the “protection of cochlea from noise trauma” value is given as “protection of cochlea from noise trauma”.
With `CN(C)CCCC1(c2ccc(F)cc2)OCc2cc(C#N)ccc21` (stereo not shown) [citalopram, 1-[3-(dimethylamino)propyl]-1-(4-fluorophenyl)-1,3-dihydro-5-isobenzofurancarbonitrile], the “impact on auditory processes” value in data set [1] is recorded as “positive impact on auditory processes in the elderly”.
Turning to `N[C@@H](CC(=O)[O-])C(=O)[O-].[Mg+2]` [magnesium aspartate], the permanent threshold shift result in data set [2] is on record as “significant effect on permanent threshold shift”.
As to `[Mg]` [magnesium], the “noise-induced temporary threshold shift” value in data set [3] is reported as “protect against noise-induced temporary threshold shift”.
